What was measured:
5-lipoxygenase = biological target: T1, 5-lipoxygenase (Rattus norvegicus, UniProt P12527); assay: Inhibition of 5-lipoxygenase (production of 5-HETE in RBL-1 cells); assay type: cell-based, rat (RBL-1, rat basophilic leukemia cells); details: for inhibition at 1 µM: 10^-6 M; for inhibition at 0.1 µM: 10^-7 M
T1 construct: endogenous in cells; host or cells: RBL-1 cells (rat basophilic leukemia)
T1 sequence (P12527 1-673): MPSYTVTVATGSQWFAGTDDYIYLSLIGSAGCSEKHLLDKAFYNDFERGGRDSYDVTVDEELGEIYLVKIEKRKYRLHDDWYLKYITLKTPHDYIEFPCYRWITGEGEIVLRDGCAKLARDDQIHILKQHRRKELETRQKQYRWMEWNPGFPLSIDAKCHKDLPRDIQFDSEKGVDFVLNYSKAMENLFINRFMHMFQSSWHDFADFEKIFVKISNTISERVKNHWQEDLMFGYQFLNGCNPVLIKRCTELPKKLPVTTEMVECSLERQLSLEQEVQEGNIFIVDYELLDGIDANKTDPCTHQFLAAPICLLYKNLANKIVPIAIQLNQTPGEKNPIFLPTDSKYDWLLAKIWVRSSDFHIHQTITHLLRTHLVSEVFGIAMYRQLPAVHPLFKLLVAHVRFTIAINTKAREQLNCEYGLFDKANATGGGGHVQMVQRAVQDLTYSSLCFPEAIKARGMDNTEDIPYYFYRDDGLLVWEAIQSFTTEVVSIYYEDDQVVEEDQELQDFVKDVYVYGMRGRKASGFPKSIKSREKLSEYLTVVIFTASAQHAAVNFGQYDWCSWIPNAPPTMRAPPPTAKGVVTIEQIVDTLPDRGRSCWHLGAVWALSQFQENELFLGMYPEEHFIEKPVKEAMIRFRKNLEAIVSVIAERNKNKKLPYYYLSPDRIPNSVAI
Experimental: Inhibition of 5-lipoxygenase
10^7 RBL-1 cells (rat basophilic leukemia cells) were suspended in 0.5 ml of MCM (mast cell medium ). To the suspension was subsequently added a solution consisting of 0.5 ml of MCM, 50 μg of arachidonic acid, 10 μg of A-23187 (calcium ionophore, Eli Lilly), and a solution of a quinone compound in ethanol at the final concentration of 1 μM, 0.1 μM, 0.01 μM or 0.001 μM of the test compound was added and allowed to react at 37° C. for 20 minutes. After the reaction, 4 ml of ethanol containing 1,4-dimethoxy-2-methyl-3-(3-methoxypropyl)naphthalene as an internal standard were added, mixed well by shaking, and kept at room temperature for 10 minutes. Then the mixture was centrifuged for 10 minutes (2000 rpm), and the supernatant was separated. The supernatant was concentrated to dryness under reduced pressure. To the concentrate, 0.5 ml of 60% aqueous methanol was added. One hundred μl of this solution was subjected to high performance liquid chromatography for quantitative analysis of 5-HETE (5-hydroxyeicosatetraenoic acid). The amount of 5-HETE was analyzed by measurement of the absorbance at […] with a UV absorption monitor.
Inhibitory effect (IE) of production of 5-HETE is expressed by (1-b/a)×100, wherein a is the peak height or the area corrected with the peak due to the internal standard in the absence of the quinone compound, and b is the peak hight or peak area corrected with the peak due to the internal standard in the presence of the quinone compound.

[1] = biological target: T2, Thromboxane A2 (TXA2) synthetase (Equus caballus, UniProt A0A9L0T8T9); assay: Inhibition of Thromboxane A2 (TXA2) synthetase (horse platelet microsome); assay type: biochemical; details: read-out: Inhibition of Thromboxane A2 (TXA2) synthetase; for inhibition at 1 µM: 10^-6 M; for inhibition at 0.1 µM: 10^-7 M
T2 sequence (A0A9L0T8T9 2-534): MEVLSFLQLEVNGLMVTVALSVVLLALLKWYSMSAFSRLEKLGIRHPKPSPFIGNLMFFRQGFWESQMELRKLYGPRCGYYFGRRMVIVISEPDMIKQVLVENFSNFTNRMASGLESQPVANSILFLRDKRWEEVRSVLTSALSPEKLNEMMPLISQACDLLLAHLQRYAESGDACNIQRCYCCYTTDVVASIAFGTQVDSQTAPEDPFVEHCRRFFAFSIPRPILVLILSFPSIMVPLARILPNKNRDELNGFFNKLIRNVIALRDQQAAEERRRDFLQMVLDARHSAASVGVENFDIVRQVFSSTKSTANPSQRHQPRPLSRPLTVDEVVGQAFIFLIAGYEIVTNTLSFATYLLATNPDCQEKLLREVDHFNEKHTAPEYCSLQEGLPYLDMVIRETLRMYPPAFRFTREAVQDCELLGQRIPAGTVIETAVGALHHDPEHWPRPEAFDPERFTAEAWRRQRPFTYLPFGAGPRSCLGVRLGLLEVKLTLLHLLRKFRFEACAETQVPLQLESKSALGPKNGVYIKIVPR
Experimental: Inhibition of Thromboxane A2 (TXA2) synthetase
(§1) As a preparation of TXA2 synthetase, horse platelet microsome treated with indomethacin (indomethacin-treated horse platelet microsome: IPM) according to the method of Needleman et al. (Science 193 163, 1979) was used. To 60 μl of the solution of IPM in 50 mM Tris buffer(pH 7.5) (containing 140 μg on the protein basis), 60μof a solution containing a drug at a variable concentration was added and kept still at room temperature for 5 minutes. One hundred μl of this mixture was taken, to which 20 μl of a buffer containing 30 ng cf prostaglandin H2 (PGH2) with ice-cooling and kept still at 0° C. for 5 minutes to produce thromboxane A2 (TXA2). The reaction was stopped by addition of 500 μl of Tris buffer, and 50 μl of the resultant solution was subjected to radioimmunoassay of thromboxane B2 (TXB2), a stable metabolite of TXA2 [Shibouta et al. Biochem. Pharmacol. 28 3601, 1979]. The rate of inhibition (%) of TXA2 synthetase was determined from the difference in TXB2 productivity between the untreated group and the treated group.
as §1, with “60 μl of” for “60μof”, “of” for “cf”

SMILES | inhibition at 1 µM (5-lipoxygenase) [%] | inhibition at 0.1 µM (5-lipoxygenase) [%] | inhibition at 1 µM [1] [%] | inhibition at 0.1 µM [1] [%]
CC1=C(C)C(=O)C(C(C)c2cccnc2)=C(C)C1=O (centres unmarked) [Compound No. 1, 3,5,6-trimethyl-2-[1-(3-pyridyl)ethyl]-1,4-benzoquinone] | 84 | 46 | 76 | 37
CC1=C(C)C(=O)C(C(CCCCCC(=O)O)c2cccnc2)=C(C)C1=O (centres unmarked) [Compound No. 13, 7-(3-pyridyl)-7-(3,5,6-trimethyl-1,4-benzoquinon-2-yl)heptanoic acid] | 64 | 16 | 87 | 48

Source: US4985447A, “Certain benzoquinones, naphthoquinones and derivatives thereof which exhibit thromboxane A2 synthetase inhibition or receptor antagonism and the like” (Takeda Chemical Industries, Ltd., priority 1986, dated 1991)
